Where a name gives a salt, the structure may show the parent alone. Read-outs that look alike come from different tables or passages of the source.
Columns and labels:
5-HT reuptake = assay: Enhancement of the action of L-5-hydroxytryptophan in mice (5-HT reuptake inhibition, in vivo); set-up: species or system Male ICR mice; details: Mus musculus, ip, intraperitoneal, 30 minutes before 90 mg/kg i.v. L-5-hydroxytryptophan
Experimental: Enhancement of the action of L-5-hydroxytryptophan which is a 5-HT precursor was tested [Naunyn-Schmiedeberg's Archives of Pharmacology, 311, 185-192 (1980)]. Male ICR mice weighing from 30 to 40 g were used. A test drug was intraperitoneally administered, and 30 minutes later 90 mg/kg of L-5-hydroxytryptophan was intravenously injected. […] The test drug was evaluated from the ED50 in manifestation of each action.

5-HT reuptake sites = target: T1, 5-HT reuptake sites (Rattus norvegicus, UniProt P31652); assay: [3H]-Citalopram binding to 5-HT reuptake sites (5-HT reuptake inhibition, in vitro); details: rat cerebral cortex membrane, about 1.0 nM [3H]-Citalopram, 25° C., 60 minutes
T1 construct: a rat cerebral cortex membrane preparation (about 0.4 mg-protein); from tissue; host or cells: rat cerebral cortex membrane preparation
Experimental: The 5-HT reuptake inhibitory activity was tested by examining the degree of inhibition of a test compound on binding of [^3 H]-Citalopram to 5-HT reuptake sites.
The method of D'amato RJ, et al. described in J. Pharmacol. Exp. Ther., 242, 364 (1987) was used. A buffer solution (0.5 ml) containing about 1.0 nM of [^3 H]-Citalopram, a rat cerebral cortex membrane preparation (about 0.4 mg-protein), and a test compound was allowed to react at 25° C. for 60 minutes. Thereafter, the labeled ligand of bound form was separated form the labeled ligand of free form by suction filtration. The amount of the ligand nonspecifically bound to the 5-HT reuptake sites, which was obtained by adding excess non-labeled Fluoxetine (10 μM), was subtracted from the total amount of the bound ligand to obtain the amount of the ligand specifically bound to the 5-HT reuptake sites. The IC50 (the concentration which reduces the amount of the specifically bound ligand by 50%) for each compound was calculated and converted to a dissociation constant (Ki value). in vivo Test: […]

5-HT2 receptors = target: T2, 5-HT2 receptors (Rattus norvegicus, UniProt P14842); assay: [3H]-Ketanserin binding, antagonism for 5-HT2 receptors (in vitro); details: rat cerebral cortex membrane, about 1.0 nM [3H]-Ketanserin, 25° C., 30 minutes; read-out: Antagonism for 5-HT2 Receptor (Ki Value)
T2 construct: a rat cerebral cortex membrane preparation (about 0.2 mg-protein); from tissue; host or cells: rat cerebral cortex membrane preparation
Experimental: The degree of inhibition of a test compound on binding of [^3 H]-Ketanserin was tested. The method of Leysen JE, et al. described in Mol. Pharmacol., 21, 301 (1982) was used. A buffer solution (0.5 ml in total) containing about 1.0 nM of [^3 H]-Ketanserin, a rat cerebral cortex membrane preparation (about 0.2 mg-protein), and a test compound was allowed to react at 25° C. for 30 minutes. Thereafter, the bound labeled ligand was separated by suction filtration. The amount of the ligand nonspecifically bound to the 5-HT2 receptors, which was obtained by adding excess non-labeled Metergoline (10 μM), was subtracted from the total amount of the bound ligand to obtain the amount of the ligand specifically bound to 5-HT2 receptors. The IC50 (the concentration at which the amount of the specifically bound ligand is reduced by 50%) for each compound was calculated and converted to a dissociation constant (Ki value).

[3H]-dopamine uptake = [3H]-dopamine uptake into corpus striatum synaptosomes; format: biochemical, Wistar male rat
Experimental: (§1) The degree of inhibition of a test compound on uptake of [^3 H]-5-HT, [^3 H]-noradrenaline and [^3 H]-dopamine into synaptosomes was examined. The method of Harada and Maeno described in Biochem. Pharmacol., 28, 2645 (1979) was used. A Wistar male rat was decapitated and the cerebral cortex and the corpus striatum were taken out. The synaptosome fraction of the cerebral cortex was prepared for 5-HT and noradrenaline uptake and that of the corpus striatum was prepared for dopamine uptake. Each synaptosome fraction was incubated at 37° C. for 3 minutes, and [^3 H]-5-HT, [^3 H]-noradrenaline and [^3 H]-dopamine (10^-7 M) was added to the respective fraction. After further incubation for 2 minutes, the system was cooled with ice (0° C.) to stop the reaction. Then, the reaction system was filtered through a Whatman CF/B glass filter, and the radioactivity trapped on the filter was measured with a liquid scintillation counter. The nonspecific activity was obtained by using a reaction system containing no test drug and having been incubated at 0° C. The test drug was evaluated from the IC50 (the concentration at which the uptake of each radioactive ligand reduced by 50%).

[1] = system: [3H]-noradrenaline uptake; assay: [3H]-noradrenaline uptake into cerebral cortex synaptosomes; format: biochemical, Wistar male rat
Experimental: as §1

[3H]-5-HT uptake = [3H]-5-HT uptake into cerebral cortex synaptosomes; format: biochemical, Wistar male rat; details: rat cerebral cortex synaptosomes, 10^-7 M ligand, 37° C.; read-out: IC50 in inhibition of [3H]-5-HT uptake
Experimental: as §1

[2] = clinical use, Physician's Desk Reference 1990; cited from earlier work
α1 receptors = details: background; causes side effects based thereon; cited from earlier work
[3] = selectivity, about 30 or more times

T1 sequence (P31652 whole entry): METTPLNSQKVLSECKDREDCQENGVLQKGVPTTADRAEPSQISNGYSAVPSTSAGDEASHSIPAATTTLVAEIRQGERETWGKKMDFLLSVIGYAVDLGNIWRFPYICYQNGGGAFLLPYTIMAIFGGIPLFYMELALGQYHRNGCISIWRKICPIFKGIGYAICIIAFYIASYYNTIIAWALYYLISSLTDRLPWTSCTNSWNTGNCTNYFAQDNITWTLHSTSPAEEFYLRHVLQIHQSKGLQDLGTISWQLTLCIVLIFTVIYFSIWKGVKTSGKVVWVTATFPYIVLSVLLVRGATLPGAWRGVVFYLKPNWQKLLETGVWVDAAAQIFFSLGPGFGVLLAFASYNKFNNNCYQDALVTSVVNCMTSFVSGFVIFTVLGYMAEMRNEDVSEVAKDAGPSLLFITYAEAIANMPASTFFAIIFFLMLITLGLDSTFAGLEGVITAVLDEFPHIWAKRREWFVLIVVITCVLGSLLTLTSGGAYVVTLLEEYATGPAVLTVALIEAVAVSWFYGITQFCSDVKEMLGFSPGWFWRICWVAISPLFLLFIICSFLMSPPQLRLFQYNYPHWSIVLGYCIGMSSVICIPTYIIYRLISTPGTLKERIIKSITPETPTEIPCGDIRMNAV
T2 sequence (P14842 whole entry): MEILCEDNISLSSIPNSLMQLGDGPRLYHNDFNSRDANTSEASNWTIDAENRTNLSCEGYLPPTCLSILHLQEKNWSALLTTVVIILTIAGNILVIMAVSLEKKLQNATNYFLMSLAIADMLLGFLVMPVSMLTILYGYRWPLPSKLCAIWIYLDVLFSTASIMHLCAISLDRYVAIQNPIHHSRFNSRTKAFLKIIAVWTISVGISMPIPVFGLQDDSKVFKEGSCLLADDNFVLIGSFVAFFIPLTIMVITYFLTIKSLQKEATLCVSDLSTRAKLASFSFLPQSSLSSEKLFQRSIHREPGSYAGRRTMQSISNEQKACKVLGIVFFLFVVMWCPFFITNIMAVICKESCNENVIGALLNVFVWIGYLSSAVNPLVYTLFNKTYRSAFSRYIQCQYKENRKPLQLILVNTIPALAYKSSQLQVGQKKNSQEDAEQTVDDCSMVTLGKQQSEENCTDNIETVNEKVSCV

SMILES: Fc1ccc(OCC2CNCCO2)c2c1CCC2.O=C(O)/C=C/C(=O)O (single isomer, unassigned; (-)) [Example 4, (-)-2-[[(7-fluoro-4-indanyl)oxy]methyl]morpholine fumarate]
- ED50 (5-HT reuptake; read-out: ED50 in manifestation of head shaking behavior): 7.2 mg/kg
- ED50 (5-HT reuptake; read-out: ED50 in manifestation of hind leg abduction): 14.1 mg/kg
- ED50 (5-HT reuptake; read-out: ED50 in manifestation of tremor): 6.3 mg/kg
- Ki (5-HT reuptake sites): 21 nM
- Ki (5-HT2 receptors): 100 nM

SMILES: Fc1ccc(OCC2CNCCO2)c2c1CCC2 (single isomer, unassigned; (-)) [Example 5, (-)-2-[[(7-fluoro-4-indanyl)oxy]methyl]morpholine hydrochloride]
- Ki (5-HT reuptake sites): 21 nM
- Ki (5-HT2 receptors): 100 nM

SMILES: Fc1ccc(OCC2CNCCO2)c2c1CCC2 (stereo not drawn) [Example 1, 2-[[(7-fluoro-4-indanyl)oxy]methyl]morpholine]
- IC50 ([3H]-dopamine uptake; rat corpus striatum synaptosomes, 10^-7 M ligand, 37° C., read-out: IC50 in inhibition of [3H]-dopamine uptake): ≥ 10000 nM
- [3H]-5-HT uptake inhibitory activity relative to [3H]-dopamine uptake inhibitory activity ([3H]-dopamine uptake; [3]): ≥ 30 times
- IC50 ([1]; rat cerebral cortex synaptosomes, 10^-7 M ligand, 37° C., read-out: IC50 in inhibition of [3H]-noradrenaline uptake): 6720 nM
- [3H]-5-HT uptake inhibitory activity relative to [3H]-noradrenaline uptake inhibitory activity [1, 3]: ≥ 30 times
- IC50 ([3H]-5-HT uptake): 227 nM

SMILES: CNCCC(Oc1ccc(C(F)(F)F)cc1)c1ccccc1 (stereo not drawn) [Fluoxetine]
- side effects during the course of therapy [2]: induces anxiety or insomnia

SMILES: O=c1n(CCCN2CCN(c3cccc(Cl)c3)CC2)nc2ccccn12 [Trazodone]
- affinity to α1 receptors (in words) (α1 receptors): exhibits affinity to α1receptors

SMILES: c1cc2c(c(OCC3CNCCO3)c1)CCC2 (stereo not drawn) [compound 1, 2-[[(4-Indanyl)oxy]methyl]morpholine, reference compound]
- Ki (5-HT reuptake sites): 52 nM
- Ki (5-HT2 receptors): 1030 nM

SMILES: C1=Cc2cccc(OCC3CNCCO3)c2C1 (stereo not drawn) [compound 2, 2-[[(7-Indenyl)oxy]methyl]morpholine, reference compound]
- Ki (5-HT reuptake sites): 22 nM
- Ki (5-HT2 receptors): 4670 nM

Source: patent publication US5521180A, “Morpholine derivative” (Yamanouchi Pharmaceutical Co., Ltd., priority 1993, dated 1996)
